Data published in ChEMBL document CHEMBL1208717, “Antimalarial 3-arylamino-6-benzylamino-1,2,4,5-tetrazines” (Bioorg Med Chem Lett, 2010).
Where “and” joins values, the source holds several entries; their conditions need not be identical. Equal entries are not always repeated.

Assays:
Plasmodium falciparum [1] = test: Antimalarial activity against erythrocytic stage of chloroquine-resistant Plasmodium falciparum Dd2; assay type: functional, organism-based
Plasmodium falciparum [2] = test: Antimalarial activity against erythrocytic stage of Plasmodium falciparum 3D7; assay type: functional, organism-based
Leishmania infantum = test: Antileishmanial activity against amastigote stage of Leishmania infantum; assay type: functional, organism-based
Trypanosoma cruzi = test: Antitrypanosomal activity against amastigote stage of Trypanosoma cruzi Tulahuen C2C4; assay type: functional, organism-based; conditions: Tulahaen C2C4
L6 = test: Cytotoxicity against rat L6 cells; assay type: cell-based
[3] = test system: Trypanosoma brucei rhodesiense; test: Antitrypanosomal activity against bloodstream form of Trypanosoma brucei rhodesiense STIB 900; assay type: functional, organism-based
[4] = Cytotoxicity against human HEK cells at 29 uM; assay type: cell-based; conditions: hek293, 29 µM
Plasmodium falciparum [5] = test: Antimalarial activity against erythrocytic stage of chloroquine-resistant Plasmodium falciparum Dd2 at 115 uM; assay type: functional
Plasmodium falciparum [6] = test: Antimalarial activity against erythrocytic stage of Plasmodium falciparum 3D7 at 115 uM; assay type: functional, organism-based
[7] = Cytotoxicity against human HEK cells at 115 uM; assay type: cell-based; conditions: hek293, 115 µM
Plasmodium falciparum [8] = test: Antimalarial activity against erythrocytic stage of Plasmodium falciparum 3D7 at 38 uM; assay type: functional, organism-based
[9] = Cytotoxicity against human HEK cells at 38 uM; assay type: cell-based; conditions: hek293, 38 µM
[10] = Cytotoxicity against human HEK cells; assay type: cell-based; conditions: HEK293
[11] = Plasmodium falciparum, Dd2, read-out: EC50

Clc1ccc(Nc2nnc(NCc3ccccc3)nn2)cc1
EC50 (Plasmodium falciparum [1]; [11]): 1.1 µM | EC50 (Plasmodium falciparum [2]): 0.44 µM and 1.1 µM | EC50 (Leishmania infantum): 16 µM | EC50 (Trypanosoma cruzi): 15 µM | IC50 (L6): > 32 µM | EC50 [3]: > 32 µM | Activity [4]: 58%

Clc1ccc(Nc2nnc(NCCc3ccccc3)nn2)cc1
Activity (Plasmodium falciparum [5]): 88% | Activity (Plasmodium falciparum [6]): 85% | Activity [7]: Non-toxic

CC(Nc1nnc(Nc2ccc(Cl)cc2)nn1)c1ccccc1 (configuration not stated)
EC50 (Plasmodium falciparum [8]): Not Active | Activity [9]: Non-toxic

CNc1nnc(NCc2ccccc2)nn1
EC50 (Plasmodium falciparum [6]): Not Active | Activity [7]: Non-toxic

CCCCNc1nnc(NCc2ccccc2)nn1
EC50 (Plasmodium falciparum [6]): Not Active | Activity [7]: Non-toxic

c1ccc(CNc2nnc(Nc3ccccc3)nn2)cc1
EC50 (Plasmodium falciparum [6]): Not Active | Activity [7]: Non-toxic

CN(c1ccc(Cl)cc1)c1nnc(NCc2ccccc2)nn1
EC50 (Plasmodium falciparum [1]; [11]): 3.5 µM | IC50 [10]: 12 µM | EC50 (Plasmodium falciparum [2]; Plasmodium falciparum, 3D7): 2.4 µM

CN(C)CCN(c1ccc(Cl)cc1)c1nnc(NCc2ccccc2)nn1
EC50 (Plasmodium falciparum [1]; [11]): 20 µM | IC50 [10]: 38 µM | EC50 (Plasmodium falciparum [2]; Plasmodium falciparum, 3D7): 13 µM

CN(C)CCN(Cc1ccccc1)c1nnc(N(CCN(C)C)c2ccc(Cl)cc2)nn1
EC50 (Plasmodium falciparum [6]): Not Active | Activity [7]: Non-toxic

CN(C)CCOc1cccc(Nc2nnc(NCc3ccccc3)nn2)c1
EC50 (Plasmodium falciparum [1]; [11]): 13 µM | EC50 (Plasmodium falciparum [2]; Plasmodium falciparum, 3D7): 15 µM | Activity [9]: 52%

CN(C)CCOc1cccc(CNc2nnc(Nc3ccc(Cl)cc3)nn2)c1
EC50 (Plasmodium falciparum [1]): 6 µM | IC50 [10]: 21 µM | EC50 (Plasmodium falciparum [2]; Plasmodium falciparum, 3D7): 5 µM

COc1nncc(-c2cnnc(SC)n2)n1
EC50 (Plasmodium falciparum [2]; Plasmodium falciparum, 3D7): 0.18 µM | EC50 (Leishmania infantum): 8.6 µM | EC50 (Trypanosoma cruzi): 16 µM | IC50 (L6): 33 µM | EC50 [3]: 5.7 µM
